Tests used:
Test in all cases: relative viability (nuclei count vs DMSO), 5 days (fraction); higher = more cells survive
[1] = compound: CS(=O)(=O)c1ccc(-c2cnc(N)c(C(=O)Nc3ccccc3)n2)cc1 [VE-821] + Nc1nc2[nH]cc(CCc3ccc(C(=O)N[C@@H](CCC(=O)O)C(=O)O)cc3)c2c(=O)[nH]1 [Pemetrexed] (partner 0.2 µM)
Outline: (§1)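 Cells from lung cancer lines were seeded into 1536-well plates and, one day later, dosed by pin tool. Treatments were either a single drug or a fixed dose of an anchor drug with five library-drug doses (not always all listed) in √10 steps. After 5 days, nuclei were stained in a one-step fixation (final 0.05% Triton X-100, 1% formaldehyde, 1 ug/ml Hoechst) and counted on 4× images, and relative viability is the treated-to-vehicle nuclei ratio, as the median of duplicate plates.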

[2] = compound: CS(=O)(=O)c1ccc(-c2cnc(N)c(C(=O)Nc3ccccc3)n2)cc1 [VE-821] + O=C(CCCCCCC(=O)Nc1ccccc1)NO [Vorinostat] (partner 1 µM)
Outline: as §1

[3] = compound: N#CC[C@H](C1CCCC1)n1cc(-c2ncnc3[nH]ccc23)cn1 [Ruxolitinib] + Cc1cc(Nc2cc(N3CCN(C)CC3)nc(Sc3ccc(NC(=O)C4CC4)cc3)n2)n[nH]1 [Tozasertib] (partner 0.1 µM)
Outline: as §1

[4] = compound: N#CC[C@H](C1CCCC1)n1cc(-c2ncnc3[nH]ccc23)cn1 [Ruxolitinib] + O=C(c1cc(Cc2n[nH]c(=O)c3ccccc23)ccc1F)N1CCN(C(=O)C2CC2)CC1 [Olaparib] (partner 8 µM)
Outline: as §1

| Cell Line | relative viability ([1]; first compound 0.08 µM) | relative viability ([1]; first compound 0.253 µM) | relative viability ([1]; first compound 0.8 µM) | relative viability ([1]; first compound 2.53 µM) | relative viability ([1]; first compound 8 µM) | relative viability ([2]; first compound 0.08 µM) | relative viability ([2]; first compound 0.253 µM) | relative viability ([2]; first compound 0.8 µM) | relative viability ([2]; first compound 2.53 µM) | relative viability ([2]; first compound 8 µM) | relative viability ([3]; first compound 0.253 µM) | relative viability ([3]; first compound 0.8 µM) | relative viability ([3]; first compound 2.53 µM) | relative viability ([3]; first compound 8 µM) | relative viability ([4]; first compound 0.08 µM) | relative viability ([4]; first compound 0.253 µM) | relative viability ([4]; first compound 0.8 µM) | relative viability ([4]; first compound 2.53 µM) | relative viability ([4]; first compound 8 µM) | relative viability ([3]; first compound 0.08 µM) |
| --- | --- | --- | --- | --- | --- | --- | --- | --- | --- | --- | --- | --- | --- | --- | --- | --- | --- | --- | --- | --- |
| LC-2-ad | 0.265 | 0.286 | 0.272 | 0.264 | 0.24 | 0.758 | 0.748 | 0.768 | 0.8 | 0.659 | 0.435 | 0.548 | 0.482 | 0.515 | 0.797 | 0.743 | 0.792 | 0.801 | 0.624 | – |
| Calu-6 | – | – | – | – | – | – | – | – | – | – | – | – | – | – | 0.575 | 0.62 | 0.577 | – | 0.39 | – |
| NCI-H2126 | 0.687 | 0.585 | 0.693 | 0.475 | 0.31 | 0.722 | 0.78 | 0.749 | 0.727 | 0.497 | 0.848 | 1.1 | 0.975 | 0.838 | 0.923 | 0.933 | 0.958 | 0.879 | 0.811 | 0.864 |
| NCI-H647 | 0.157 | 0.139 | 0.125 | 0.0986 | 0.0738 | 0.556 | 0.689 | 0.646 | 0.469 | 0.287 | 0.237 | 0.224 | 0.378 | 0.297 | 0.578 | 0.687 | 0.596 | 0.475 | 0.31 | 0.297 |
| NCI-H322M | 0.616 | 0.639 | 0.542 | 0.532 | 0.385 | 0.903 | 0.831 | 0.899 | 0.818 | 0.499 | 0.503 | 0.457 | 0.458 | 0.482 | 0.752 | 0.852 | 0.79 | 0.809 | 1.05 | 0.451 |

— the supplement of paper PMC10307832
